Data: patent publication US20040034099A1, “Pharmaceutical composition” (priority 2002, published 2004)

Experiment: Excipient screen (fillers, disintegrants, glidants, lubricants): tablets evaluated at accelerated conditions
Assay type: physicochemical
Conditions: tablets at accelerated conditions (40° C./75% RH); for filler the active ingredient is compatible with: physical characteristics and content of active ingredient
Protocol: Experiments to screen fillers, disintegrants, glidants and lubricants were conducted for the composition according to the present invention. Tablets were evaluated for physical characteristics and content of active ingredient at accelerated conditions (40° C./75% RH). The assay values were analysed statistically. […] Of all lubricants examined, chlorambucil was most compatible with stearic acid.

SMILES | lubricant the active ingredient is most compatible with (of all lubricants examined) | filler the active ingredient is compatible with
O=C(O)CCCc1ccc(N(CCCl)CCCl)cc1 [chlorambucil, 4-[bis(2-chloroethyl)amino]-benzenebutanoic acid] | stearic acid | a mixture of anhydrous lactose and microcrystalline cellulose
N[C@@H](Cc1ccc(N(CCCl)CCCl)cc1)C(=O)O [melphalan, 4-[bis(2-chloroethyl)amino]-L-phenylalanine] |  | microcrystalline cellulose
